Reference: a melting point compilation (Tetko et al.; mined from patent text by program, amines drawn as free bases though some values may be those of a salt)

| Structure (SMILES) | melting point [°C] |
| --- | --- |
| CCC(Oc1c(Br)cc(-c2ccc(-c3c(Cc4ccccc4)oc4ccccc34)cc2)cc1Br)C(=O)O (configuration not stated) | 79 to 80 |
| CSc1nc(=O)n(CC(=O)O)cc1F | 244 to 245 |
| COc1ccc(Sc2oc3ccc(Cl)cc3c2C)nn1 | 131 to 134 |
| CCCC(=O)NC1=NN(c2cccc(Cl)c2)CC1 | 168 to 169 |
| CCOC(=O)C(NC(=O)OCc1ccccc1)OCC (configuration not stated) | 66 to 68 |
| O=[N+]([O-])C=C1NCCN1c1ccc(Cl)nc1 | 201 |
| COCCCNc1ccc([N+](=O)[O-])cc1C | 26 to 28 |
| C=C(Nc1nc(-c2ccccc2)c(-c2nc3ccccc3c(=O)n2-c2ccc(C(C)=O)cc2)s1)c1ccco1 | 232 to 233 |
| CCN(CC)CCNc1nc2cccnc2n(-c2ccc(OC)cc2)c1=O | 167 to 168 |
| COC(=O)C(C)(C)Cc1ccc(CC(C)(C)C(=O)OC)cc1 | 74 to 76 |
| CCCCC(CC)C(c1ccc(O)cc1)c1ccc(O)cc1 (configuration not stated) | 87 |
| CS(=O)(=O)c1ccc(C2=C(c3ccccc3)C(=O)C3(CCCC3)O2)cc1 | 184 to 185 |
| Cc1ccc(S(=O)(=O)N(NC=O)c2ccc(NC(=S)Oc3ccccc3)cc2)cc1 | 195 to 196 |
| O=C1CC(CCCl)c2ccccc2N1 (configuration not stated) | 112 to 113 |
| COc1ccc(S(=O)(=O)n2ccc3ccnc(-c4ccc(C(F)(F)F)cc4)c32)cc1 | 143 to 145 |
| COc1cccc(CNC(=O)c2nc3scc(CCOc4ccc(C(=O)O)cc4)c3c(=O)[nH]2)c1 | 237 to 241 |
| COc1ccc(CNc2nc(CCCC(=O)O)nc3sc(Cl)cc23)cc1Cl | 114 |
| CCOC(=O)c1nnc(NS(=O)(=O)c2ccc(NC(C)=O)cc2)s1 | 201 to 202 |
| COC(=O)C(O)C1(O)CCC2C3CCC4=CC(=O)C=CC4(C)C3C(O)CC21C (configuration not stated) | 171 to 173 |
| Clc1ccc(CCC(Cn2ccnc2)Sc2ccccc2Cl)s1 (configuration not stated) | 121 to 122 |
| CC(=O)N1CCC(CC(=O)O)CC1 | 124 |
| O=C(O)C1=Cc2cc(I)ccc2OC1C(F)(F)F (configuration not stated) | 168 to 170 |
| CCOC(=O)c1cc2c3ccccc3n(C)c2s1 | 99 to 100 |
| O=c1[nH]ncc2cc(/C=C\c3ccc(O)cc3)ccc12 | 210 |
| COc1cc(OC)c2c3c(n(Cc4ccccc4)c2c1)CCCC3C(N)=O (configuration not stated) | 190 to 192 |
| O=C1NC2(CCCc3sccc32)c2ccccc21 (configuration not stated) | 224 to 226 |

| Structure (SMILES) | melting point [°C] |
| --- | --- |
| CCc1cnn(CC(=O)O)c1OCCn1cc(C(=O)NCc2ccc(C(F)(F)F)cc2)c(OC(C)C)n1 | 183 to 184 |
| CCOC(=O)c1cnc2c(-c3cccc(Cl)c3)cnn2c1Cl | 140 to 141 |
| O=C(O)CCCCCOC(=O)n1c(-c2cscn2)nc2ccccc21 | 79 to 81 |
| CCS(=O)(=O)c1cc2c(cc1OC)CCn1c3c(c(-c4cccs4)c1-2)CCCCN(C(C)(C)C)C3=O | 223 to 224 |
| CCn1nc2c(N)nc3ccccc3c2c1CC1(F)CCN(C(=O)NC(C)C)CC1 | 205 to 207 |
| Nc1ccc(Sc2ccccc2)cc1Cl | 59 to 60 |
| Cc1c(SCCN(C)Cc2ccccc2)ccnc1CSc1nc2ccccc2[nH]1 | 110 to 112 |
| O=C(CCCN1CCC(=C(c2ccccc2)c2ccccc2)CC1)c1ccc(F)cc1 | 111 to 114 |
| NP(N)(=O)OCC(Cl)(Cl)Cl | 86 to 87 |
| COc1ccc(F)c(F)c1C=NO | 199 to 201 |
| COc1cc2nc(C(C)(C)C)sc2cc1NC(=S)SCCC(=O)O | 154 to 156 |
| COc1cc(-c2ccc(C#N)cc2)c2nc(-c3ccc(OC)c(F)c3)cc(O)c2c1 | 248 to 250 |
| C=CCOc1ccc(C(=O)C=Cc2ccc(OC)c(OC)c2)cc1 | 74.5 to 75 |
| Oc1ccc(Cn2cnc3c(-c4ccco4)ncnc32)cc1 | 231 to 233 |
| CC(C)(C)c1ccc(S(=O)(=O)N(Cc2cc(C(C)(C)C)c(O)c(C(C)(C)C)c2)c2cccnc2)cc1 | 155 to 156 |
| CC1CC2C3CCC4=CC(=O)C=CC4(C)C3=CCC2(C)C1C(=O)CN1CCN(c2cc(NC34CC5CC(CC(C5)C3)C4)nc(NC34CC5CC(CC(C5)C3)C4)n2)CC1 (configuration not stated) | 210 to 220 |
| CCCCC(=O)C(=Cc1ccc(Cl)cc1)n1cncn1 | 117 to 120 |
| COCc1nc2c(N)nc3ccccc3c2n1CC(C)(C)O | 174 to 175 |
| OCCCn1c(=S)[nH]c2c(OCc3ccccc3)cccc21 | 124 to 125 |
| CN1CCN(c2nc(NCc3ccco3)nc(Nc3ccc(O)cc3)n2)CC1 | 116 to 118 |
| O=C1c2ccccc2C2(CCCC2)C(=O)N1CCO | 76 to 77 |
| O=C(CC(C(=O)O)C1CCCCC1)Nc1cccc(/C=C/c2nc(C3CCC3)cs2)c1 (configuration not stated) | 205 to 207 |
| COCCOCCOCCOc1cc(OC)c(-c2cccs2)cc1/C=C/C(=O)c1ccc(C(=O)O)cc1 | 137 to 138 |
| CCOC(=O)C(=CC=C(C)C=CC=C(C)C=CC1=C(C)CCCC1(C)C)CC | 164 to 165 |
| FC(F)(F)c1cccc(C(Cl)=Nc2nc(C(F)(F)F)c(I)s2)c1 | 136 to 137 |
| Cc1cc(-c2ccccc2)nc2c1ccn2-c1ccc(C(C)C)cc1Br | 95.8 |

| Structure (SMILES) | melting point [°C] |
| --- | --- |
| COC(=O)CCc1cc2cc(C(C)=O)ccc2n1S(=O)(=O)c1ccccc1 | 122 to 127 |
| Cc1c(C(=O)OC(C)C)sc(C(=O)OC(C)C)c1O | 87 to 89 |
| N#CNC(=NCCc1ccccc1Cl)c1cncc(NC(=O)c2ccccc2)c1 | 220 |
| CCOC(=O)c1cccc(O)c1C | 58 to 60 |
| N#Cc1ccc(C(=O)C(Br)C(Br)c2ccc(C#N)cc2)cc1 (configuration not stated) | 192 to 193 |
| COC(OC)C(C)Nc1cc(OCc2ccccc2)ccc1[N+](=O)[O-] (configuration not stated) | 57 to 62 |
| CC1(O)CCN(Cc2ccc(C#CC(=O)Nc3ccc(-c4ccc(Cl)cc4)cc3)cc2)CC1 | 192 to 193 |
| Cc1ccc(-c2ccc(C(=O)O)cc2)c(N)c1 | 273 to 278 |
| CC1CC(C(=O)Nc2ccccc2)(C(=O)OC(C)(C)C)N(C(=O)CNC(=O)OC(C)(C)C)C1c1ccccc1 (configuration not stated) | 182 |
| O=C(O)Cc1cccc(OCc2ccccc2)c1 | 127 to 129 |
| COc1cc(-c2csc(-n3c(C)ccc3C)n2)c(OC)cc1C | 92 to 93 |
| CCOC(=O)NNc1nc2ccccc2n2cnc(C(=O)OCC)c12 | 126 to 128 |
| O=c1c2ccccc2sc2c(OCc3ccccc3)ccc(Cl)c12 | 139 to 140 |
| O=C(Cc1ccc2c(c1)OCO2)N[C@H]1CC[C@H](CCN2CCN(c3nccc4c3OCC4)CC2)CC1 | 187 |
| Nc1cc(C(F)(F)F)c([N+](=O)[O-])cc1C(=O)O | 237 |
| O=C(OCc1ccccc1)c1cc2ccccc2[nH]1 | 136 |
| CCCCc1nc2cccc(C(=O)O)c2n1Cc1ccc(-c2ccccc2-c2n[nH]c(=O)o2)cc1 | 204 to 205 |
| CN(C)C(=O)CCC(=O)c1ccccc1 | 56 to 58 |
| COc1cc(Nc2c(C#N)cnc3cc(C#Cc4ccccn4)sc23)c(Cl)cc1Cl | 237 to 239 |
| COc1cc(OC)c(OC)cc1C=C1CCc2c1oc1ccc(C(=O)O)cc1c2=O | 311 to 313 |
| O=c1oc(-c2ccccc2)cc(O)c1Sc1ccccc1Cl | 275 to 280 |
| CNC(=S)C1(c2ccc(Cl)c(Cl)c2)CCCCS1 (configuration not stated) | 116 to 117 |
| COc1ccc(S(=O)(=O)NC(CCF)C(=O)OC(C)(C)C)cc1 (configuration not stated) | 89 to 90 |
| N#Cc1cccc(CC(NC(=O)c2cc3cc(Cl)ccc3[nH]2)C(=O)N2CCSC2)c1 (configuration not stated) | 183 to 184 |
| Cc1cc(C)cc(Nc2ncc(-c3ccccc3)s2)c1 | 175 to 176 |
| CCc1oc(-c2ccc(C(F)(F)F)cc2)cc1CCC(=O)Nc1cccc(CSCC(=O)O)c1 | 139 to 141 |

| Structure (SMILES) | melting point [°C] |
| --- | --- |
| CCOC(=O)c1c(O)c2sccc2[nH]c1=O | 218 |
| CN1CC(C(=O)N(C)CCCc2ccc(Cl)c(Cl)c2)=C(O)C1=O | 138 to 140 |
| OC(c1ccccc1)c1nnnn1Cc1ccccc1 (configuration not stated) | 81 |
| CC(C)(C)OC(=O)CNC(=S)Nc1cccc(C#N)c1 | 131 to 132 |
| Nc1sc2c(c1C(=O)c1cc3ccccc3o1)CCCC2 | 86 to 89 |
| CCCCN(CCCC)c1ccc(C=CC=CC=CC2=C(C#N)C(=C(C#N)C#N)OC2(C)C(F)(F)F)c(OC)c1 (configuration not stated) | 168 to 172 |
| O=C(O)c1ccc2c(c1)S(=O)(=O)c1ccccc1NC2 | 304 to 306 |
| CCOC(=O)Nc1c(C(=O)O)oc2cc(OCc3ccccc3)ccc12 | 198 |
| O=C(NO)OCC1c2ccccc2-c2ccccc21 | 160 |
| C=CCc1cc(C(C)=O)c(O)cc1OCCCCCCCC#N | 46 to 48 |
| CCOC(=O)C(NC(=O)c1ccc(C)cc1)C(=O)OCC | 98 to 99 |
| CO[C@@H]1CCN2C(=O)N(c3ccc(C#N)c4ccccc34)C(=O)[C@H]12 (relative stereo) | 185 to 186 |
| COC(=O)C1=NNC(C)=C(C(=O)OC)C1c1ccc(OC)cc1 (configuration not stated) | 154 |
| CC(=O)N(C)Cc1ccc(NC(=O)/C=C/c2cnn(C)c2-c2ccc(F)cc2)cc1 | 192 to 193 |
| CCOC(=O)c1c(C(F)(F)F)nc(C(F)F)c(C#N)c1CC | 38 to 40 |
| CC(=O)c1ccc(Br)c(S(N)(=O)=O)c1 | 161 |
| CCOC(=O)c1c(C)nc2scnc2c1NC(C)C | 48 to 50 |
| OC1CSC(Oc2cncc(-c3ccc(C(F)(F)F)cc3)c2)C(O)C1O (configuration not stated) | 218 to 219 |
| O=C(Cc1ccccc1)Nc1cc(-c2ccc(Cl)cc2)[nH]n1 | 222 to 224 |
| CC1CN(c2c(F)cc3c(=O)c(C(=O)O)cn(C4CC4)c3c2F)CC1NC(=O)OC(C)(C)C (configuration not stated) | 230 to 231 |
| N#Cc1ncccc1C(=O)OCc1csc(-c2cccc(Cl)c2)n1 | 130 |
| CC(=O)Nc1ccc(OC(=O)CO)cc1 | 144 to 146 |
| CO/C=C(/C(=O)OC)c1ccccc1COc1cccc(N2CCCCC2)c1 | 64 to 66 |
| CSc1ccc2cc(Cc3ccccc3)cc(CCNC(C)=O)c2c1 | 126 to 128 |
